Reference: patent publication US5883136A, “Anhydroretinol and derivatives thereof as antagonists of immune responses and inhibitors of cancer cell growth” (Sloan-Kettering Institute for Cancer Research, priority 1995, dated 1999)
Read-outs that look alike come from different tables or passages of the source.

Columns and labels:
[1] = tested on: murine B cell lymphoma; test: Inhibition of murine B cell lymphoma by AR; type: cell-based
[2] = tested on: DU145; test: Tumor cell sensitivity to anhydroretinol, prostate carcinoma; type: cell-based; details: DU145, FIG. 6A
Excerpt: (§1) FIGS. 6A-6B show titrations for the inhibition by AR of prostate carcinoma cell lines DU145, PC-3 and LNCAP.

[3] = tested on: LNcAP; test: as above; type: cell-based; details: FIG. 6C
Excerpt: as §1

[4] = tested on: Human lymphoblastoid 5/2 cells; test: Metabolites of [3H] retinol in lymphoblastoid 5/2 cells, HPLC; type: in vitro ADME; details: 5/2, 16 hours, FIG. 1C
Procedure: (§2) After 4 hours (FIGS. 1A and 1B) or after 16 hours (FIG. 1C) retinoids were extracted from the washed cell pellet according to the procedure of McClean et al. (16). Retinoids were separated on an analytical C18 reversed-phase column and detected with an on-line scintillation counter using the methodology described in Buck et al. (4). […] The peak eluting at minute 29 is the all-trans anhydroretinol, whereas the companion peaks at minute 27 and 28 represent cis-isomers (14). All isomers yield spectra with characteristic vibronic fine structure similar to the spectrum of all-trans AR.

[5] = tested on: Murine thymocytes; test: Activation of murine thymocytes with anti-CD3, 3H thymidine incorporation; type: cell-based
Procedure: (§3) Murine thymocytes (2×10^5 /well in triplicates) were cultured in ITLB medium in 96-well plates coated with 10 μg/ml anti-CD3^ε mAB (12) as described (3). […] Cell proliferation was tested on day 3 by ^3 H thymidine incorporation into DNA. […] The results of cell proliferation assays performed at 72 hours are shown. […] CTLL proliferation was measured by ^3 H thymidine incorporation into DNA (FIG. 4D). The standard deviation of triplicate measurements were <10%.

[6] = tested on: lymphocytes; test: Metabolism by lymphocytes to retinol or 14-HRR; type: in vitro ADME; details: unpublished data
[7] = tested on: CTLL cell line; test: CTLL cell line proliferation, 3H thymidine incorporation; type: cell-based; details: for CTLL proliferation: control experiments; for CTLL responsiveness to retinol and AR: with recombinant IL-2, broad dose ranges, data not shown
Procedure: as §3

[8] = tested on: SF-9 cells; test: Metabolites of [3H] retinol in SF-9 cells, HPLC; type: in vitro ADME, insect; details: SF-9, 4 hours, FIG. 1A
Procedure: as §2

[9] = tested on: Human B lymphoblastoid cells (5/2); test: B lymphoblastoid cell proliferation, 3H thymidine incorporation; type: cell-based
Procedure: (§4) Human B lymphoblastoid cells (e.g., cell line 5/2) were cultured in medium RPMI 1640 with 7% fetal calf serum. On the day of the assay, cells were washed and transferred to serum-free medium, RPMI 1640 supplemented with insulin, transferrin, linoleic acid, and bovine albumin (ITLB medium) as described (3). Test reagents at indicated concentrations were added to triplicate cultures of […] in 96 well plates (final volume of 200 μl/well) and cell proliferation tested 1 day (FIGS. 2B, 2C, 2D) or 3 days later (FIG. 2A) by ^3 H thymidine incorporation into DNA. […] Three additional human lymphoblastoid cell lines, Hom 2, Jest and Ducaf were tested under the conditions specified for FIG. 2A (FIG. 2D).

[10] = tested on: human lymphoblastoid cell lines; test: B lymphoblastoid cell proliferation, 3H thymidine incorporation (Hom 2, Jest, Ducaf); type: cell-based; details: several randomly selected lines, FIG. 2D
Procedure: as §4

[11] = target: T1, serum retinol binding protein (RBP) (Homo sapiens, UniProt P02753); test: Dissociation constant to serum retinol binding protein by fluorometric titration
T1 construct: Human RBP was purified from human serum; from tissue; host or cells: human serum
Procedure: (§5) Apo-protein (1-3 μM) was titrated with the appropriate all-trans-retinoid dissolved in ethanol and the titration was followed by measuring the increase in the fluorescence of the retinoids upon binding. Reaction mixtures included 150 mM NaCl, 0.1 mM DTT, and 25 mM HEPES; pH's were 7.0 and 7.4, respectively. […] Data analyses were performed as described by Cogan et al. (14). Human RBP was purified from human serum by means of a transthyretin column (15). Human CRBP I and CRABP I were gifts from Dr. W. S. Blaner (Columbia University, New York, N.Y.) and Dr. J. Napoli (SUNY, Buffalo, N.Y.), respectively.

[12] = tested on: SF 21 cells; test: Metabolites of [3H] retinol in SF 21 cells, HPLC; type: in vitro ADME, insect; details: SF 21, 4 hours, FIG. 1B
Procedure: as §2

[13] = tested on: resting T lymphocytes; test: Activation of resting T lymphocytes (summary statement); type: cell-based
[14] = tested on: 14-HRR synthesis; test: Metabolic rate of 14-HRR synthesis from 3H labelled retinol; type: cell-based; details: hundredfold excess of AR, data not shown
Excerpt: Therefore, competitive inhibition at the level of CRBP is a realistic possibility to explain the retinol-AR antagonism. […] By inference, a separate 14-HRR binding protein/receptor, as yet to be defined, may exist.

[15] = tested on: B lymphocyte; test: B lymphocyte proliferation (summary statement); type: cell-based
[16] = target: cellular retinoic acid binding protein (CRABP I) (Homo sapiens, UniProt P29762); test: Dissociation constant to cellular retinoic acid binding protein by fluorometric titration; details: no binding = no significant binding could be detected
Chain of cellular retinoic acid binding protein (CRABP I) (P29762 whole entry): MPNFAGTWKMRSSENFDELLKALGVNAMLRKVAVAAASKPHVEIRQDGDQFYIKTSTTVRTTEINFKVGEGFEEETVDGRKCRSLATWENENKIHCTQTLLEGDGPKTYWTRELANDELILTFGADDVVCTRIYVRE
Procedure: as §5

[17] = target: T2, cellular retinol binding protein (CRBP I) (Homo sapiens, UniProt P09455); test: Dissociation constant to cellular retinol binding protein by fluorometric titration; details: for Kd: fluorometric titration, 150 mM NaCl, 0.1 mM DTT, 25 mM HEPES
T2 sequence (P09455 1-135): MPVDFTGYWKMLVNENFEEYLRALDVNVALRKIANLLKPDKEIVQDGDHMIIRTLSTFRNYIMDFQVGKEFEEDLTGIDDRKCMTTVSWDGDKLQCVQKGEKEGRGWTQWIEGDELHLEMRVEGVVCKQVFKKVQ
Procedure: as §5

[18] = tested on: interleukin-2 (IL-2); test: IL-2 release by stimulated thymocytes, CTLL assay; type: cell-based, murine; details: for IL-2 production: presence or absence of retinol or 14-HRR, previous unpublished work
Procedure: as §3

[19] = tested on: lymphocytes; test: Cultures of lymphocytes with 14-HRR as agonist; type: cell-based; details: FIGS. 2B and 4B
[20] = tested on: IL-2 receptor; test: IL-2 receptor expression of activated T cells; type: cell-based; details: presence or absence of retinol or 14-HRR, previous unpublished work
[21] = tested on: Il-2 dependent TH cell clones and T cell hybridoma; test: Growth of Il-2 dependent TH cell clones and T cell hybridoma; type: cell-based; details: previous unpublished observations
[22] = tested on: Murine thymocytes; details: T cell receptor-generated signals, serum-free medium, ref. (3); cited from earlier work
[23] = tested on: T cell leukemia line Jurkat; test: Jurkat T cell leukemia growth, viable cell count with trypan blue; type: cell-based, human
Excerpt: Viable cells in each culture were counted. On days 4 and 6 nutrients were replenished.
The T cell leukemia line Jurkat was transferred from normal, FCS-containingmedium to serum-free medium ITLB. […] Cells were counted daily differentially in the presence of trypan blue, and the total number of cells generated in each culture plotted in FIG. 3A. It is evident that cells deprived of retinol decline in numbers as compared to cells with retinol.

In the case of C=CC(C)=CC=CC(C)=CC=C1C(C)=CCCC1(C)C [AR, Anhydroretinol], the “sensitivity to inhibition by AR” value [1] is reported as “all proved sensitive to inhibition”, the “inhibition by AR, relative sensitivity” value [2] is reported as “highest sensitivity” and the “inhibition by AR, relative sensitivity” value [3] is reported as “appears to be insensitive”. For the same compound, the “AR as metabolite of [3H] retinol” value [4] was “also produced AR”, the “thymidine uptake of cycling thymocytes” value ([5]; AR given 2 days after activation, FIG. 4C) was “able to reduce the thymidine uptake of cycling thymocytes” and the “inhibition of thymocyte activation” value ([5]; retinol or 14-HRR as cofactor, anti-CD3, FIGS. 4A, 4B) was “pronounced”. The “metabolism by lymphocytes to retinol or to 14-HRR” value [6] was “not metabolized”, the CTLL proliferation [7] was “completely inert” and the “CTLL responsiveness to retinol and AR” value [7] was “independent of either retinoid”. The “AR as metabolite of [3H] retinol” value [8] was “undetectable”, the “antagonism of 14-HRR” value ([9]; AR 5×10^-6 M vs 1.3×10^-6 M 14-HRR, FIG. 2B) was “clear antagonism” and the antagonism of retinol ([9]; AR 5×10^-6 M vs 3.7×10^-6 M retinol, FIG. 2A) was “clear antagonism”. The “support of B cell proliferation” value ([9]; FIG. 2A) was “nor does it support B cell proliferation”, the “inhibition of B cell cultures” value ([9]; graded concentrations of fetal calf serum (FIG. 2C) or RBP/retinol complex (data not shown)) was “strongly inhibitory” and the ID50 values ([9]; graded concentrations of fetal calf serum or RBP/retinol complex) was “comparable to those seen in retinol-supplemented cultures”. For the same compound, the “inhibitory dose (ID50)” value ([9]; serum-free medium supplemented with retinol or 14-HRR) was “dependent on the agonist concentration”, the “competitive antagonism of retinol or 14-HRR” value ([9]; serum-free medium with retinol or 14-HRR, FIGS. 2A, 2B) was “competitive antagonist” and the “growth inhibition of B cell cultures” value ([9]; ten percent fetal bovine serum containing medium, FIG. 2C) was “strong growth inhibition”. The “sensitivity to inhibition by AR” value [10] was “all proved sensitive to inhibition”, the Kd ([11]; fluorometric titration, 150 mM NaCl, 0.1 mM DTT, 25 mM HEPES, read-out: dissociation constant RBP) was 20 nM and the “AR as metabolite of [3H] retinol” value [12] was “predominant metabolite”. For the same compound, the “activation of resting T lymphocytes” value [13] was “block B lymphocyte proliferation as well as activation of resting T lymphocytes”, the “metabolic rate of 14-HRR synthesis” value [14] was “no change” and the B lymphocyte proliferation [15] was “block B lymphocyte proliferation”. For the same compound, the “aid to B cell proliferation” value [15] was “not to aid B cell proliferation”, the “dissociation constant CRABP I (binding in words)” value (shortened to “dissociation constant CRABP I”) [16] was “no binding” and the Kd [17] was 23 nM. For the same compound, the IL-2 release ([18]; supernatants after 18 hours, FIG. 4D) was “did not interfere with IL-2 release” and the “inhibition of lymphocyte cultures with 14-HRR as agonist” value [19] was “reversibly inhibits”.

With CC(C=CC=C(C)C(O)CO)=CC=C1C(C)=CCCC1(C)C (stereo not drawn) [Compound 14-HRR, 14-hydroxy-4,14-retro-retinol] the IL-2 receptor expression [20] was “unaffected”, the “growth dependence on retinol and 14-HRR” value [21] was “grow independently” and the CTLL proliferation [7] was “completely inert”. The Kd [11] was 120 nM, the “activation of resting thymocytes, cofactor dependence” value [22] was “dependent on retinoid cofactors” and the “dissociation constant CRABP I” value [16] was “no binding”. The “binding to CRBP” value [17] was “does not bind to CRBP with appreciable affinity”, the “dissociation constant CRBP I (binding in words)” value ([17]; no binding = no significant binding could be detected) was “no binding” and the IL-2 production [18] was “unaffected”.

With CC1=C(/C=C/C(C)=C/C=C/C(C)=C/CO)C(C)(C)CCC1 [retinol, all-trans retinol] the IL-2 receptor expression [20] was “unaffected”, the “growth dependence on retinol and 14-HRR” value [21] was “grow independently” and the CTLL proliferation [7] was “completely inert”. The “CTLL responsiveness to retinol and AR” value [7] was “independent of either retinoid”, the “activation of resting thymocytes, cofactor dependence” value [22] was “dependent on retinoid cofactors” and the “dissociation constant CRABP I” value [16] was “no binding”. For the same compound, the Kd [17] was 13 nM, the IL-2 production [18] was “unaffected” and the “rescue of Jurkat cells on reintroduction of retinol” value ([23]; after day 6) was “allows rescue of the cells”. The “dependence of Jurkat cells on retinol” value ([23]; serum-free medium ITLB, 4×10^-6 M retinol) was “retinol-dependent”.
